Measured values published in patent US11225482B2, “Dihydropyrrolopyrimidines for the treatment and prophylaxis of hepatitis B virus infection” (Hoffmann-La Roche Inc., priority 2017, dated 2022).

Tested on: HBsAg
Experiment: HBsAg assay (CLIA) in HepG2.2.15 cells
Assay type: cell-based, HBV
Conditions: Hepatitis B virus, HepG2.2.15, read-out: IC50 (HBsAg assay)
Protocol: HepG2.2.15 cells (Acs et al. Proc Natl Acad Sci USA, 84, (1987), 4641-4), a constitutively HBV-expressing cell line were cultured in DMEM+Glutamax-I medium (Invitrogen, Carlsbad, Calif., USA), supplemented with 10% fetal bovine serum (Invitrogen) and G418 (Invitrogen) at a final concentration of 200 mg/L and maintained in 5% CO2 at 37° C.
HepG2.2.15 cells were seeded in duplicate into white, 96-well plates at 1.5×10^4 cells/well. The cells were treated with a three-fold serial dilution series of the compounds in DMSO. The final DMSO concentration in all wells was 1% and DMSO was used as no drug control.
The HBsAg chemiluminescence immunoassay (CLIA) kit (Autobio Diagnostics Co., Zhengzhou, China, Catalog number: CL0310-2) was used to measure the levels of secreted HBV antigens semi-quantitatively. For the detection 50 μL/well culture supernatant was used and HBsAg was quantified using HBsAg chemiluminescence immunoassay (CLIA) kit (Autobio Diagnostics Co., Zhengzhou, China, Catalog number: CL0310-2), 50 μL of the supernatant was transferred to the CLIA assay plate and 50 μL of enzyme conjugate reagent was added into each well. The plates were sealed and gently agitated for 1 hour at room temperature. The supernatant-enzyme-mixture was discarded and wells were washed 6 times with 300 μL of PBS. The residual liquid was removed by plating the CLIA plate […] on absorbent tissue paper. 25 μL of substrates A and B were added to each well. Luminance was measured using a luminometer (Mithras LB 940 Multimode Microplate Reader) after 10 minutes incubation. Dose-response curves were generated and the IC50 value was extrapolated by using the E-WorkBook Suite (ID Business Solutions Ltd., Guildford, UK). The IC50 was defined as the compound concentration (or conditioned media log dilution) at which HBsAg secretion was reduced by 50% compared to the no drug control.

Row | SMILES | IC50
1 | CC1c2cnc(-c3ncccn3)nc2CN1C(=O)c1ccc2ccccc2c1 (stereo not drawn) [Example 19, (5-Methyl-2-pyrimidin-2-yl-5,7-dihydropyrrolo[3,4-d]pyrimidin-6-yl)-(2-naphthyl)methanone] | 7860 nM
2 | CC1c2cnc(-c3ncccn3)nc2CN1C(=O)c1cn2ccccc2n1 (stereo not drawn) [Example 20, Imidazo[1,2-a]pyridin-2-yl-(5-methyl-2-pyrimidin-2-yl-5,7-dihydropyrrolo[3,4-d]pyrimidin-6-yl)methanone] | 502 nM
3 | COc1cncc(C(=O)N2Cc3nc(-c4ncccn4)ncc3C2C)n1 (stereo not drawn) [Example 22, (6-Methoxypyrazin-2-yl)-(5-methyl-2-pyrimidin-2-yl-5,7-dihydropyrrolo[3,4-d]pyrimidin-6-yl)methanone] | 4730 nM
4 | CC1c2cnc(-c3ncccn3)nc2CN1C(=O)c1n[nH]c2ccccc12 (stereo not drawn) [Example 23, 1H-indazol-3-yl-(5-methyl-2-pyrimidin-2-yl-5,7-dihydropyrrolo[3,4-d]pyrimidin-6-yl)methanone] | 232 nM
5 | CC1c2cnc(-c3ncccn3)nc2CN1C(=O)c1cnn2ccccc12 (stereo not drawn) [Example 24, (5-Methyl-2-pyrimidin-2-yl-5,7-dihydropyrrolo[3,4-d]pyrimidin-6-yl)-pyrazolo[1,5-a]pyridin-3-yl-methanone] | 156 nM
6 | CC1c2cnc(-c3ncccn3)nc2CN1C(=O)c1ccc2ncsc2c1 (stereo not drawn) [Example 25, 1,3-Benzothiazol-6-yl-(5-methyl-2-pyrimidin-2-yl-5,7-dihydropyrrolo[3,4-d]pyrimidin-6-yl)methanone] | 29000 nM
7 | CC1c2cnc(-c3ncccn3)nc2CN1C(=O)c1cnc2ccccn12 (stereo not drawn) [Example 26, Imidazo[1,2-a]pyridin-3-yl-(5-methyl-2-pyrimidin-2-yl-5,7-dihydropyrrolo[3,4-d]pyrimidin-6-yl)methanone] | 220 nM
8 | CC1c2cnc(-c3ncccn3)nc2CN1C(=O)c1noc2ccccc12 (stereo not drawn) [Example 27, 1,2-Benzoxazol-3-yl-(5-methyl-2-pyrimidin-2-yl-5,7-dihydropyrrolo[3,4-d]pyrimidin-6-yl)methanone] | 620 nM
9 | CC1c2cnc(-c3ncccn3)nc2CN1C(=O)c1nc2ccccc2s1 (stereo not drawn) [Example 28, 1,3-Benzothiazol-2-yl-(5-methyl-2-pyrimidin-2-yl-5,7-dihydropyrrolo[3,4-d]pyrimidin-6-yl)methanone] | 1790 nM
10 | CC1c2cnc(-c3ncccn3)nc2CN1c1cc(F)cc(F)n1 (stereo not drawn) [Example 31, 6-(4,6-difluoro-2-pyridyl)-5-methyl-2-pyrimidin-2-yl-5,7-dihydropyrrolo[3,4-d]pyrimidine] | 659 nM
11 | CC1c2cnc(-c3ncccn3)nc2CN1c1cc(F)nc(F)c1 (stereo not drawn) [Example 32, 6-(2,6-difluoro-4-pyridyl)-5-methyl-2-pyrimidin-2-yl-5,7-dihydropyrrolo[3,4-d]pyrimidine] | 2000 nM
12 | COc1cc(F)nc(N2Cc3nc(-c4ccccn4)ncc3C2C)c1 (stereo not drawn) [Example 33, 6-(6-Fluoro-4-methoxy-2-pyridyl)-5-methyl-2-(2-pyridyl)-5,7-dihydropyrrolo[3,4-d]pyrimidine] | 127 nM
13 | CC(=O)N1CCN(c2cc(F)cc(N3Cc4nc(-c5ncccn5)ncc4C3C)n2)CC1 (stereo not drawn) [Example 34, 1-[4-[4-Fluoro-6-(5-Methyl-2-Pyrimidin-2-Yl-5,7-Dihydropyrrolo[3,4-d]Pyrimidin-6-Yl)-2-Pyridyl]Piperazin-1-Yl]Ethanone] | 361 nM
14 | CC1c2cnc(-c3ncccn3)nc2CN1c1cc(F)nc(N2CC3(COC3)C2)c1 (stereo not drawn) [Example 35, 6-[6-Fluoro-4-(5-Methyl-2-Pyrimidin-2-Yl-5,7-Dihydropyrrolo[3,4-d]Pyrimidin-6-Yl)-2-Pyridyl]-2-Oxa-6-Azaspiro[3.3]Heptane] | 588 nM
15 | CC1c2cnc(-c3ncccn3)nc2CN1c1cc(F)cc(N2CC3(COC3)C2)n1 (stereo not drawn) [Example 36, 6-[4-Fluoro-6-(5-Methyl-2-Pyrimidin-2-Yl-5,7-Dihydropyrrolo[3,4-d]Pyrimidin-6-Yl)-2-Pyridyl]-2-Oxa-6-Azaspiro[3.3]Heptane] | 865 nM
16 | CNc1cc(F)nc(N2Cc3nc(-c4ncccn4)ncc3C2C)c1 (stereo not drawn) [Example 37, 2-Fluoro-N-methyl-6-(5-methyl-2-pyrimidin-2-yl-5,7-dihydropyrrolo[3,4-d]pyrimidin-6-yl)pyridin-4-amine] | 55 nM
17 | CC1c2cnc(-c3ncccn3)nc2CN1c1cc(N(C)C)cc(F)n1 (stereo not drawn) [Example 38, 2-Fluoro-N,N-dimethyl-6-(5-methyl-2-pyrimidin-2-yl-5,7-dihydropyrrolo[3,4-d]pyrimidin-6-yl)pyridin-4-amine] | 15 nM
18 | CC1c2cnc(-c3ncccn3)nc2CN1c1cc(N2CCC2)cc(F)n1 (stereo not drawn) [Example 39, 6-[4-(Azetidin-1-yl)-6-fluoro-2-pyridyl]-5-methyl-2-pyrimidin-2-yl-5,7-dihydropyrrolo[3,4-d]pyrimidine] | 20 nM
19 | CC1c2cnc(-c3ncccn3)nc2CN1c1cc(N2CCCC2)cc(F)n1 (stereo not drawn) [Example 40, 6-(6-Fluoro-4-pyrrolidin-1-yl-2-pyridyl)-5-methyl-2-pyrimidin-2-yl-5,7-dihydropyrrolo[3,4-d]pyrimidine] | 16 nM
20 | CC1c2cnc(-c3ncccn3)nc2CN1c1cc(N2CCCCC2)cc(F)n1 (stereo not drawn) [Example 41, 6-[6-Fluoro-4-(1-piperidyl)-2-pyridyl]-5-methyl-2-pyrimidin-2-yl-5,7-dihydropyrrolo[3,4-d]pyrimidine] | 41 nM
21 | CC1c2cnc(-c3ncccn3)nc2CN1c1cc(N2CCOCC2)cc(F)n1 (stereo not drawn) [Example 42, 4-[2-Fluoro-6-(5-methyl-2-pyrimidin-2-yl-5,7-dihydropyrrolo[3,4-d]pyrimidin-6-yl)-4-pyridyl]morpholine] | 40 nM
22 | CC1c2cnc(-c3ncccn3)nc2CN1c1cc(N2CCNCC2)cc(F)n1 (stereo not drawn) [Example 43, 6-(6-Fluoro-4-piperazin-1-yl-2-pyridyl)-5-methyl-2-pyrimidin-2-yl-5,7-dihydropyrrolo[3,4-d]pyrimidine] | 4270 nM
23 | CC1c2cnc(-c3ncccn3)nc2CN1c1cc(N2CCN(S(C)(=O)=O)CC2)cc(F)n1 (stereo not drawn) [Example 44, 6-[6-Fluoro-4-(4-methylsulfonylpiperazin-1-yl)-2-pyridyl]-5-methyl-2-pyrimidin-2-yl-5,7-dihydropyrrolo[3,4-d]pyrimidine] | 140 nM
24 | CC1c2cnc(-c3ncccn3)nc2CN1c1cc(N2CCNC(=O)C2)cc(F)n1 (stereo not drawn) [Example 45, 4-[2-Fluoro-6-(5-methyl-2-pyrimidin-2-yl-5,7-dihydropyrrolo[3,4-d]pyrimidin-6-yl)-4-pyridyl]piperazin-2-one] | 160 nM
